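Abbreviation: GI50, concentration required for 50% inhibition of growth. TGI marks complete inhibition of growth.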
Key:
Experiment in all cases: NCI anticancer screen, dose series, 384-well format
NCI-H460 NSCLC = tested on: NCI-H460 NSCLC
SNB-19 CNS = tested on: SNB-19 CNS
NCI-H322M lung = tested on: NCI-H322M lung
OVCAR-4 ovarian = tested on: OVCAR-4 ovarian
A498 renal = tested on: A498 renal
MOLT-4 leukemia = tested on: MOLT-4 leukemia
HT29 colon = tested on: HT29 colon
OVCAR-3 ovarian = tested on: OVCAR-3 ovarian
SK-MEL-5 melanoma = tested on: SK-MEL-5 melanoma
A549 NSCLC = tested on: A549 NSCLC
HCC-2998 colon = tested on: HCC-2998 colon
KM12 colon = tested on: KM12 colon
LOX IMVI melanoma = tested on: LOX IMVI melanoma
M14 melanoma = tested on: M14 melanoma
CAKI-1 renal = tested on: CAKI-1 renal
SR leukemia = tested on: SR leukemia
IGROV1 ovarian = tested on: IGROV1 ovarian
BT-549 breast = tested on: BT-549 breast
EKVX NSCLC = tested on: EKVX NSCLC
MDA-MB-435 melanoma = tested on: MDA-MB-435 melanoma
SF-295 CNS = tested on: SF-295 CNS
UACC-62 melanoma = tested on: UACC-62 melanoma
MALME-3M melanoma = tested on: MALME-3M melanoma
OVCAR-8 ovarian = tested on: OVCAR-8 ovarian
NCI/ADR-RES ovarian = tested on: NCI/ADR-RES ovarian
MDA-MB-468 breast = tested on: MDA-MB-468 breast
UO-31 renal = tested on: UO-31 renal
MCF7 breast = tested on: MCF7 breast
HOP-62 NSCLC = tested on: HOP-62 NSCLC
786-0 renal = tested on: 786-0 renal
TK-10 renal = tested on: TK-10 renal
OVCAR-5 ovarian = tested on: OVCAR-5 ovarian
NCI-H522 lung = tested on: NCI-H522 lung
SK-MEL-28 melanoma = tested on: SK-MEL-28 melanoma
COLO 205 colon = tested on: COLO 205 colon
SW-620 colon = tested on: SW-620 colon
HL-60(TB) leukemia = tested on: HL-60(TB) leukemia
PC-3 prostate = tested on: PC-3 prostate
SF-268 CNS = tested on: SF-268 CNS
NCI-H23 lung = tested on: NCI-H23 lung
SN12C renal = tested on: SN12C renal
RPMI-8226 leukemia = tested on: RPMI-8226 leukemia
T-47D breast = tested on: T-47D breast
SF-539 CNS = tested on: SF-539 CNS
HCT-15 colon = tested on: HCT-15 colon
MDA-MB-231 breast = tested on: MDA-MB-231 breast
HS 578T breast = tested on: HS 578T breast
SK-OV-3 ovarian = tested on: SK-OV-3 ovarian
NCI-H226 lung = tested on: NCI-H226 lung
UACC-257 melanoma = tested on: UACC-257 melanoma
SNB-75 CNS = tested on: SNB-75 CNS
K-562 leukemia = tested on: K-562 leukemia
DU-145 prostate = tested on: DU-145 prostate
HOP-92 NSCLC = tested on: HOP-92 NSCLC
U251 glioblastoma = tested on: U251 glioblastoma
RXF 393 renal = tested on: RXF 393 renal
CCRF-CEM leukemia = tested on: CCRF-CEM leukemia
ACHN renal = tested on: ACHN renal

O=C(Nc1cccc(Nc2ncc(Br)c(NCCc3cnc[nH]3)n2)c1)N1CCCC1
GI50 (NCI-H460 NSCLC): 2.96 µM | TGI (NCI-H460 NSCLC): 8.71 µM | GI50 (SNB-19 CNS): 8.32 µM | TGI (SNB-19 CNS): 46.8 µM | GI50 (NCI-H322M lung): 10.3 µM | TGI (NCI-H322M lung): 22.3 µM | GI50 (OVCAR-4 ovarian): 1.13 µM | TGI (OVCAR-4 ovarian): 10.4 µM | GI50 (A498 renal): 4.58 µM | TGI (A498 renal): 60.7 µM | GI50 (MOLT-4 leukemia): 0.202 µM | TGI (MOLT-4 leukemia): 0.403 µM | GI50 (HT29 colon): 4.1 µM | TGI (HT29 colon): 18.5 µM | GI50 (OVCAR-3 ovarian): 2.72 µM | TGI (OVCAR-3 ovarian): 17.3 µM | GI50 (SK-MEL-5 melanoma): 3.58 µM | TGI (SK-MEL-5 melanoma): 14.6 µM | GI50 (A549 NSCLC): 6.32 µM | TGI (A549 NSCLC): > 100 µM | GI50 (HCC-2998 colon): 6.06 µM | TGI (HCC-2998 colon): 19 µM | GI50 (KM12 colon): 0.684 µM | TGI (KM12 colon): 10.6 µM | GI50 (LOX IMVI melanoma): 1.18 µM | TGI (LOX IMVI melanoma): 2.8 µM | GI50 (M14 melanoma): 3.02 µM | TGI (M14 melanoma): 12.9 µM | GI50 (CAKI-1 renal): 3.62 µM | TGI (CAKI-1 renal): 19.7 µM | GI50 (SR leukemia): 0.18 µM | TGI (SR leukemia): 0.349 µM | GI50 (IGROV1 ovarian): 6.48 µM | TGI (IGROV1 ovarian): 21.1 µM | GI50 (BT-549 breast): 1.57 µM | TGI (BT-549 breast): 5.23 µM | GI50 (EKVX NSCLC): 6.65 µM | TGI (EKVX NSCLC): 27.3 µM | GI50 (MDA-MB-435 melanoma): 2.96 µM | TGI (MDA-MB-435 melanoma): 16.5 µM | GI50 (SF-295 CNS): 3.77 µM | TGI (SF-295 CNS): 14.5 µM | GI50 (UACC-62 melanoma): 1.69 µM | TGI (UACC-62 melanoma): 14.2 µM | GI50 (MALME-3M melanoma): 4.16 µM | TGI (MALME-3M melanoma): 17.9 µM | GI50 (OVCAR-8 ovarian): 5.61 µM | TGI (OVCAR-8 ovarian): 18.9 µM | GI50 (NCI/ADR-RES ovarian): > 100 µM | TGI (NCI/ADR-RES ovarian): > 100 µM | GI50 (MDA-MB-468 breast): 0.283 µM | TGI (MDA-MB-468 breast): 0.631 µM | GI50 (UO-31 renal): 26.6 µM | TGI (UO-31 renal): > 100 µM | GI50 (MCF7 breast): 3.67 µM | TGI (MCF7 breast): 19.9 µM | GI50 (HOP-62 NSCLC): 2.78 µM | TGI (HOP-62 NSCLC): 12.4 µM | GI50 ([…]-0 renal): 5.36 µM | TGI (786-0 renal): 19.5 µM | GI50 (TK-10 renal): 7.86 µM | TGI (TK-10 renal): 23.8 µM | GI50 (OVCAR-5 ovarian): 4.3 µM | TGI (OVCAR-5 ovarian): 24.9 µM | GI50 (NCI-H522 lung): 1.08 µM | TGI (NCI-H522 lung): 4.86 µM | GI50 (SK-MEL-28 melanoma): 5.06 µM | TGI (SK-MEL-28 melanoma): 18.7 µM | GI50 (COLO 205 colon): 0.273 µM | TGI (COLO 205 colon): 0.886 µM | GI50 (SW-620 colon): 1.6 µM | TGI (SW-620 colon): 5.1 µM | GI50 (HL-60(TB) leukemia): 0.399 µM | TGI (HL-60(TB) leukemia): 1.94 µM | GI50 (PC-3 prostate): 4.38 µM | TGI (PC-3 prostate): 18.4 µM | GI50 (SF-268 CNS): 1.92 µM | TGI (SF-268 CNS): 10.2 µM | GI50 (NCI-H23 lung): 2.31 µM | TGI (NCI-H23 lung): 10.7 µM | GI50 (SN12C renal): 1.48 µM | TGI (SN12C renal): 10.6 µM | GI50 (RPMI-8226 leukemia): 1.45 µM | TGI (RPMI-8226 leukemia): 2.9 µM | GI50 (T-47D breast): 4.37 µM | TGI (T-47D breast): 17.2 µM | GI50 (SF-539 CNS): 0.955 µM | TGI (SF-539 CNS): 4.06 µM | GI50 (HCT-15 colon): 11.4 µM | TGI (HCT-15 colon): 25.6 µM | GI50 (MDA-MB-231 breast): 2.4 µM | TGI (MDA-MB-231 breast): 12.7 µM | GI50 (HS 578T breast): 1.44 µM | TGI (HS 578T breast): 3.59 µM | GI50 (SK-OV-3 ovarian): 4.21 µM | TGI (SK-OV-3 ovarian): 18.8 µM | GI50 (NCI-H226 lung): 0.873 µM | TGI (NCI-H226 lung): 4.74 µM | GI50 (UACC-257 melanoma): 10.5 µM | TGI (UACC-257 melanoma): 22.4 µM | GI50 (SNB-75 CNS): 2 µM | TGI (SNB-75 CNS): 8.78 µM | GI50 (K-562 leukemia): 2.05 µM | TGI (K-562 leukemia): 10.5 µM | GI50 (DU-145 prostate): 5.13 µM | TGI (DU-145 prostate): 19.3 µM | GI50 (HOP-92 NSCLC): 1.6 µM | TGI (HOP-92 NSCLC): 6.13 µM | GI50 (U251 glioblastoma): 9.49 µM | TGI (U251 glioblastoma): 79.1 µM | GI50 (RXF 393 renal): 6.04 µM | TGI (RXF 393 renal): 20.9 µM | GI50 (CCRF-CEM leukemia): 0.19 µM | TGI (CCRF-CEM leukemia): 0.377 µM | GI50 (ACHN renal): 12.8 µM | TGI (ACHN renal): 59.5 µM
